Data from patent US12077503B2, “Substituted cyclic amides and their use as herbicides” (FMC CORPORATION, priority 2015, dated 2024).

Columns and labels:
Format in all cases: in vivo
Kochia (Kochia scoparia) [1] = assay: Test A preemergence; details: Bassia scoparia, pre-emergence, 240 h, 0 to 100 scale where 0 is no effect and 100 is complete control, read-out: Kochia plant response rating
How it was run: (§1)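 In a loam soil and sand blend, planted seeds got a preemergence directed soil spray, and young plants at the one- to two-leaf stage, 2–10 cm high, got a postemergence application; ~10 d greenhouse hold; injury rated visually, 0 = none, 100 = complete control.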

[2] = test system: barnyardgrass (Echinochloa crus-galli); assay: Test A preemergence; details: Echinochloa crus-galli, pre-emergence, 240 h, 0 to 100 scale where 0 is no effect and 100 is complete control, read-out: Barnyardgrass plant response rating
How it was run: as §1

[3] = test system: giant foxtail (Setaria faberii); assay: Test A preemergence; details: Setaria faberi, pre-emergence, 240 h, 0 to 100 scale where 0 is no effect and 100 is complete control, read-out: Foxtail, Giant plant response rating
How it was run: as §1

[4] = test system: pigweed (Amaranthus retroflexus); assay: Test A preemergence; details: Amaranthus retroflexus, pre-emergence, 240 h, 0 to 100 scale where 0 is no effect and 100 is complete control, read-out: Pigweed plant response rating
[5] = test system: ragweed (common ragweed, Ambrosia elatior); assay: Test A preemergence; details: Ambrosia artemisiifolia, pre-emergence, 240 h, 0 to 100 scale where 0 is no effect and 100 is complete control, read-out: Ragweed plant response rating
How it was run: as §1

[6] = test system: ryegrass, Italian (Italian ryegrass, Lolium multiflorum); assay: Test A preemergence; details: Lolium multiflorum, pre-emergence, 240 h, 0 to 100 scale where 0 is no effect and 100 is complete control, read-out: Ryegrass, Italian plant response rating
How it was run: as §1

[7] = test system: Galium (catchweed bedstraw, Galium aparine); assay: Test A postemergence; details: Galium, post-emergence, 240 h
How it was run: as §1

Kochia (Kochia scoparia) [8] = assay: Test A postemergence; details: Bassia scoparia, post-emergence, 240 h
How it was run: as §1

[9] = test system: barnyardgrass (Echinochloa crus-galli); assay: Test A postemergence; details: Echinochloa crus-galli, post-emergence, 240 h
How it was run: as §1

[10] = test system: blackgrass (Alopecurus myosuroides); assay: Test A postemergence; details: Alopecurus myosuroides, post-emergence, 240 h
How it was run: as §1

corn (Zea mays) = assay: Test A postemergence; details: Zea mays, post-emergence, 240 h
How it was run: as §1

[11] = test system: giant foxtail (Setaria faberii); assay: Test A postemergence; details: Setaria faberi, post-emergence, 240 h
How it was run: as §1

[12] = test system: pigweed (Amaranthus retroflexus); assay: Test A postemergence; details: Amaranthus retroflexus, post-emergence, 240 h
How it was run: as §1

[13] = test system: ragweed (common ragweed, Ambrosia elatior); assay: Test A postemergence; details: Ambrosia artemisiifolia, post-emergence, 240 h
How it was run: as §1

[14] = test system: ryegrass, Italian (Italian ryegrass, Lolium multiflorum); assay: Test A postemergence; details: Lolium multiflorum, post-emergence, 240 h
How it was run: as §1

[15] = test system: wheat (Triticum aestivum); assay: Test A postemergence; details: Triticum aestivum, post-emergence, 240 h
How it was run: as §1

[16] = test system: barnyardgrass (Echinochloa crus-galli); assay: Test B flooded paddy test; details: Echinochloa crus-galli, 250 g ai/ha, Flood; 0 to 100 scale where 0 is no effect and 100 is complete control; read-out: Barnyardgrass plant response rating
How it was run: (§2)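 Flooding to 3 cm over soil accompanied treatment, which consisted of adding compound to the standing water around 2-leaf plants; depth was then maintained. Visual assessment versus controls followed at 13 to 15 d (scale 0–100, 0 meaning no effect).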

[17] = test system: ducksalad (Heteranthera limosa); assay: Test B flooded paddy test; details: Heteranthera limosa, 250 g ai/ha, Flood; 0 to 100 scale where 0 is no effect and 100 is complete control; read-out: Ducksalad plant response rating
How it was run: as §2

rice (Oryra sativa) = assay: Test B flooded paddy test; details: Oryza sativa, 250 g ai/ha, Flood; 0 to 100 scale where 0 is no effect and 100 is complete control; read-out: Rice plant response rating
How it was run: as §2

[18] = test system: sedge, umbrella (small-flower umbrella sedge, Cyperus difformis); assay: Test B flooded paddy test; details: Cyperus difformis, 250 g ai/ha, Flood; 0 to 100 scale where 0 is no effect and 100 is complete control; read-out: Sedge, Umbrella plant response rating
How it was run: as §2

[19] = 125 g ai/ha, preemergence, approx. 10 d

CN1C[C@H](c2csc3c2CCC3)[C@@H](C(=O)Nc2ccc(F)c(F)c2F)C1=O [Compound 1081]
0%: pest or weed control at 31 g/ha ([4]; 31 g ai/ha, Preemergence) | pest or weed control at 125 g/ha [4, 19] | pest or weed control at 31 g/ha ([5]; 31 g ai/ha, Preemergence) | pest or weed control at 125 g/ha [5, 19] | pest or weed control at 31 g/ha ([6]; 31 g ai/ha, Preemergence) | pest or weed control at 125 g/ha [6, 19] | pest or weed control at 31 g/ha ([7]; Postemergence, 31 g ai/ha, visual injury after approx. 10 d, 0 to 100 scale, 0 no effect, 100 complete control, read-out: Plant response rating, Galium) | pest or weed control at 125 g/ha (Kochia (Kochia scoparia) [8]; 125 g ai/ha, postemergence, visual injury on 0 to 100 scale (0 no effect, 100 complete control), approx. 10 d, read-out: Kochia plant response rating) | pest or weed control at 31 g/ha (Kochia (Kochia scoparia) [8]; Postemergence, 31 g ai/ha, visual injury after approx. 10 d, 0 to 100 scale, 0 no effect, 100 complete control, read-out: Plant response rating, Kochia) | pest or weed control at 125 g/ha ([10]; 125 g ai/ha, postemergence, visual injury on 0 to 100 scale (0 no effect, 100 complete control), approx. 10 d, read-out: Blackgrass plant response rating) | pest or weed control at 31 g/ha ([10]; Postemergence, 31 g ai/ha, visual injury after approx. 10 d, 0 to 100 scale, 0 no effect, 100 complete control, read-out: Plant response rating, Blackgrass) | Corn plant response rating (crop injury, 0 = no effect, 100 = complete kill) at 31 g/ha (corn (Zea mays); Postemergence, 31 g ai/ha, visual injury after approx. 10 d, 0 to 100 scale, 0 no effect, 100 complete control) | pest or weed control at 125 g/ha ([12]; 125 g ai/ha, postemergence, visual injury on 0 to 100 scale (0 no effect, 100 complete control), approx. 10 d, read-out: Pigweed plant response rating) | pest or weed control at 31 g/ha ([12]; Postemergence, 31 g ai/ha, visual injury after approx. 10 d, 0 to 100 scale, 0 no effect, 100 complete control, read-out: Plant response rating, Pigweed) | pest or weed control at 125 g/ha ([13]; 125 g ai/ha, postemergence, visual injury on 0 to 100 scale (0 no effect, 100 complete control), approx. 10 d, read-out: Ragweed plant response rating) | pest or weed control at 31 g/ha ([13]; Postemergence, 31 g ai/ha, visual injury after approx. 10 d, 0 to 100 scale, 0 no effect, 100 complete control, read-out: Plant response rating, Ragweed) | pest or weed control at 125 g/ha ([14]; 125 g ai/ha, postemergence, visual injury on 0 to 100 scale (0 no effect, 100 complete control), approx. 10 d, read-out: Ryegrass, Italian plant response rating) | pest or weed control at 31 g/ha ([14]; Postemergence, 31 g ai/ha, visual injury after approx. 10 d, 0 to 100 scale, 0 no effect, 100 complete control, read-out: Plant response rating, Ryegrass, Italian) | plant injury at 31 g/ha ([15]; Postemergence, 31 g ai/ha, visual injury after approx. 10 d, 0 to 100 scale, 0 no effect, 100 complete control, read-out: Plant response rating, Wheat) | pest or weed control at 250 g/ha [18]
80%: pest or weed control at 125 g/ha ([11]; 125 g ai/ha, postemergence, visual injury on 0 to 100 scale (0 no effect, 100 complete control), approx. 10 d, read-out: Foxtail, Giant plant response rating) | pest or weed control at 250 g/ha [17]
20%: pest or weed control at 31 g/ha (Kochia (Kochia scoparia) [1]; 31 g ai/ha, Preemergence) | pest or weed control at 125 g/ha ([7]; 125 g ai/ha, postemergence, visual injury on 0 to 100 scale (0 no effect, 100 complete control), approx. 10 d, read-out: Galium plant response rating) | plant injury at 125 g/ha (corn (Zea mays); 125 g ai/ha, postemergence, visual injury on 0 to 100 scale (0 no effect, 100 complete control), approx. 10 d, read-out: Corn plant response rating) | plant injury at 125 g/ha ([15]; 125 g ai/ha, postemergence, visual injury on 0 to 100 scale (0 no effect, 100 complete control), approx. 10 d, read-out: Wheat plant response rating)
40%: pest or weed control at 250 g/ha (rice (Oryra sativa))
100%: pest or weed control at 31 g/ha ([3]; 31 g ai/ha, Preemergence) | pest or weed control at 125 g/ha [3, 19]
10%: pest or weed control at 31 g/ha ([2]; 31 g ai/ha, Preemergence) | pest or weed control at 31 g/ha ([11]; Postemergence, 31 g ai/ha, visual injury after approx. 10 d, 0 to 100 scale, 0 no effect, 100 complete control, read-out: Plant response rating, Foxtail, Giant)
90%: pest or weed control at 125 g/ha [2, 19] | pest or weed control at 125 g/ha ([9]; 125 g ai/ha, postemergence, visual injury on 0 to 100 scale (0 no effect, 100 complete control), approx. 10 d, read-out: Barnyardgrass plant response rating) | pest or weed control at 250 g/ha [16]
30%: pest or weed control at 125 g/ha (Kochia (Kochia scoparia) [1]; [19]) | pest or weed control at 31 g/ha ([9]; Postemergence, 31 g ai/ha, visual injury after approx. 10 d, 0 to 100 scale, 0 no effect, 100 complete control, read-out: Plant response rating, Barnyardgrass)
